Test [1] has as its system COLO205 cells. The experiment in a line: Cell proliferation assay (COLO205), Cell-titer Glo. The format is cell-based. As to conditions: Homo sapiens, COLO 205, 120 h incubation. The protocol:
COLO205 cells were spread into a 96-well plate at 135 μL/well at 2000 cells. After incubating overnight, compound solutions of gradient concentration was prepared, and added 15 μL of DMSO solution of the test compound of each concentration to the cells of each well. The final concentration of the compound was 30000, 10000, 3333.3, 1111.1, 370.4, 123.5, 41.2, 13.7, 4.6, 0 nM (the final concentration of DMSO was 0.5%). 5% CO2 was incubated for 120 h at 37° C. 50 μL of Cell-titer Glo working solution was added to each well, shaked and mixed, and incubated at room temperature for 10 minutes. The multi-functional microplate reader read the luminescence value, and converted the luminescence value reading into inhibition percentage. Inhibition percentage=(maximum value−reading)/(maximum value−minimum value)*100.
The “maximum value” was the DMSO control, the “minimum value” indicates the cell-free control group.
(§1) Graphpad Prism software was used to perform curve fitting and obtain IC50 value.

Test [2] deals with HCT 116 cells. Briefly: Cell proliferation assay (HCT 116), Cell-titer Glo. In kind it is cell-based. As to conditions: Homo sapiens, 120 h incubation. The protocol: The HCT 116 cells were paved in a 96-well plate at 1200 cells, 160 μL/well. After incubating overnight, the compound solutions of gradient concentration was prepared, and 40 μL of DMSO solution of the test compound of each concentration was added to the cells of each well. The final concentration of the compound was 30000, 10000, 3333.3, 1111.1, 370.4, 123.5, 41.2, 13.7, 4.6, 0 nM (the final concentration of DMSO was 0.5%). 5% CO2 was incubated for 120 h at 37° C. 50 μL of Cell-titer Glo working solution was added to each well, shaked and mixed, and incubated at room temperature for 10 minutes. The multi-functional microplate reader read the luminescence value, and converted the luminescence value reading into inhibition percentage. Inhibition percentage=(maximum value−reading)/(maximum value−minimum value)*100.
The “maximum value” was the DMSO control, the “minimum value” indicated the cell-free control group.
as §1

Test [3] deals with ERK1 (Homo sapiens, UniProt P27361). Briefly: Kinase assay (Caliper, FAM-labeled peptide), ERK1. In kind it is biochemical. In outline: (§2)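 Kinase preincubated 10 min at room temperature with serially diluted compound before FAM-labeled peptide plus ATP added; reaction run at 28 °C, then stopped. Substrate conversion read by Caliper mobility shift, normalized to DMSO and low controls, curve-fitted for IC50.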

Test [4] has as its target ERK2 (Homo sapiens, UniProt P28482). The experiment in a line: Kinase assay (Caliper, FAM-labeled peptide), ERK2. In kind it is biochemical. Put shortly: as §2

This is an account of results in US11466013B2 (Betta Pharmaceuticals Co., LTD, priority 2018, dated 2022).

The structures appear in SMILES notation.

Chain of ERK2 (P28482 whole entry): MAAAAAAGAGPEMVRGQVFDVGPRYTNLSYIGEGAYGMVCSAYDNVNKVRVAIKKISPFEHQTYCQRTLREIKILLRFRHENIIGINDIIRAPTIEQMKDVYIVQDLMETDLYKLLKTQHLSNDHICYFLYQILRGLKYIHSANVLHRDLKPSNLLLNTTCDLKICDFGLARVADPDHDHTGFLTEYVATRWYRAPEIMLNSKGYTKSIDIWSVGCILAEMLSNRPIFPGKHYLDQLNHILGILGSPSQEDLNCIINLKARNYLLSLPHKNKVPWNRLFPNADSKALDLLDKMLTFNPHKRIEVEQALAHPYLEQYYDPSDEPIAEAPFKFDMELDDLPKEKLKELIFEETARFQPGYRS
Chain of ERK1 (P27361 whole entry): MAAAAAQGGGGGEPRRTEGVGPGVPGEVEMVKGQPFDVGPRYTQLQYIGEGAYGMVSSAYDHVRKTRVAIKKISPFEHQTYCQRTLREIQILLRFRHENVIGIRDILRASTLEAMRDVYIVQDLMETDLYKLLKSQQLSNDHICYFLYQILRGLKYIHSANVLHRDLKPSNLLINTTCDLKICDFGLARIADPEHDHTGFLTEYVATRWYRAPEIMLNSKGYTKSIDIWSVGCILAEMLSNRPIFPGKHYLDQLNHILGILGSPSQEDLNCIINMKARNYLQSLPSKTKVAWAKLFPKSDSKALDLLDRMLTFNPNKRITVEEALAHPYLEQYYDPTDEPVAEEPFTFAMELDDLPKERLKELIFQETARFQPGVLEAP

For `COC[C@H]1Cn2cc(-c3nc(Nc4ccnn4C)ncc3C)nc2C(=O)N1Cc1ccc(F)c(F)c1` [AZD0364, reference compound], the IC50 (as a rule, the point on the concentration scale where inhibition reaches its midpoint) in test [1] turned out to be 72.4 nM; in test [2], 83 nM.
As for `CC(C)Nc1cc(-c2cc3n(c2)CC2(CNC2)CN(Cc2ccccc2CO)C3=O)c(Cl)cn1` [Example 24, 8′-(5-Chloro-2-(isopropylamino)pyridin-4-yl)-2′-(2-(hydroxymethyl)benzyl)-2′,3′-dihydro-1′H,5′H-spiro[azetidine-3,4′-pyrrolo[1,2-a][1,4]diazepine]-1′-one], the IC50 in test [3] came out at 0.65 nM; in test [1] it was 50 nM; in test [4] it was 0.53 nM.
In the same order, the values of `CC(C)Nc1cc(-c2cc3n(c2)CC(CO)(CO)CN(Cc2ccccc2CO)C3=O)c(Cl)cn1` [Example 27] are 0.96 nM, 9.6 nM and 0.59 nM.
The like results for `Cc1cnc(NC2CCOC2)nc1-c1cc2n(c1)CCN(Cc1cc(F)ccc1CO)C2=O` (stereo not drawn) [Example 33, 2-(5-fluoro-2-(hydroxymethyl)benzyl)-7-(5-methyl-2-((tetrahydrofuran-3-yl)amino)pyrimidin-4-yl)-3,4-dihydropyrrolo[1,2-a]pyrazine-1(2H)-one] were, in that order, 0.45 nM, 76 nM and 0.4 nM.
Regarding `CCn1nccc1Nc1cc(-c2cc3n(c2)C[C@H](COC)N(Cc2cc(F)ccc2CO)C3=O)c(Cl)cn1` [Example 52, (R)-7-(5-chloro-2-((1-ethyl-1H-pyrazol-5-yl)amino)pyridin-4-yl)-2-(5-fluoro-2-(hydroxymethyl)benzyl)-3-(methoxymethyl)-3,4-dihydropyrrolo[1,2-a]pyrazine-1(2H)-one], the IC50 was found to be 13.6 nM in test [1] and 10.7 nM in test [2].
For the compound `COC[C@H]1Cn2cc(-c3cc(Nc4ccnn4C(F)F)ncc3Cl)cc2C(=O)N1Cc1cc(F)ccc1CO` [Example 54, (R)-7-(5-chloro-2-((1-(difluoromethyl)-1H-pyrazol-5-yl)amino)pyridin-4-yl)-2-(5-fluoro-2-(hydroxymethyl)benzyl)-3-(methoxymethyl)-3,4-dihydropyrrolo[1,2-a]pyrazine-1(2H)-ketone], in test [2], inhibition was half-maximal at 16.2 nM (IC50).
Turning to `COC[C@H]1Cn2cc(-c3cc(N[C@H]4CC[C@H](O)CC4)ncc3Cl)cc2C(=O)N1Cc1cc(F)ccc1CO` [Example 71, (R)-7-(5-chloro-2-(((1R,4R)-4-hydroxycyclohexyl)amino)pyridine-4-yl)-2-(5-fluoro-2-(hydroxymethyl)benzyl)-3-(methoxymethyl)-3,4-dihydropyrrolo[1,2-a] pyrazine-1(2H)-one], the results for the IC50 in test [3], in test [2] and in test [4] were 1.1 nM, 27 nM and 1.4 nM, respectively.
For `COC[C@H]1Cn2cc(-c3cc(Nc4conc4C)ncc3Cl)cc2C(=O)N1Cc1cc(F)ccc1CO` [Example 83, (R)-7-(5-chloro-2-((3-methylisoxazole-4-yl)amino)pyridine-4-yl)-2-(5-fluoro-2-(hydroxymethyl)benzyl)-3-(methoxymethyl)-3,4-dihydropyrrolo[1,2-a] pyrazine-1(2H)-one], the IC50 in test [2] turned out to be 23 nM. This lies in the double-digit nanomolar range.
As to `COC[C@H]1Cn2cc(-c3cc(Nc4ccn(C)n4)ncc3Cl)cc2C(=O)N1Cc1cc(F)ccc1CO` [Example 86, (R)-7-(5-chloro-2-((1-methyl-1h-pyrazole-3-yl)amino)pyridine-4-yl)-2-(5-fluoro-2-(hydroxymethyl)benzyl)-3-(methoxymethyl)-3,4-dihydropyrrolo[1,2-a] pyrazine-1(2H)-one], the half-inhibitory concentration (IC50) in test [3] came to 0.91 nM; in test [1], 29.4 nM; in test [4], 0.8 nM.
Regarding `COC[C@H]1Cn2cc(-c3cc(Nc4ccnn4C)ncc3Cl)cc2C(=O)N1Cc1cccc(F)c1CO` [Example 98, (R)-7-(5-chloro-2-((1-methyl-1h-pyrazole-5-yl)amino)pyridine-4-yl)-2-(3-fluoro-2-(hydroxymethyl)benzyl)-3-(methoxymethyl)-3,4-dihydropyrrolo[1,2-a] pyrazine-1(2H)-one], the values for the IC50 in test [1] and in test [2] were 10.7 nM and 9 nM, respectively.
The like results for `COC[C@H]1Cn2cc(-c3cc(Nc4ccnn4C)ncc3Cl)cc2C(=O)N1Cc1ccc(F)cc1CO` [Example 99, (R)-7-(5-chloro-2-((1-methyl-1h-pyrazole-5-yl)amino)pyridine-4-yl)-2-(4-fluoro-2-(hydroxymethyl)benzyl)-3-(methoxymethyl)-3,4-dihydropyrrolo[1,2-a] pyrazine-1(2H)-one] were, in that order, 21.7 nM and 18 nM.
The like results for `COC[C@H]1Cn2cc(-c3cc(Nc4ccnn4C)ncc3C(F)(F)F)cc2C(=O)N1Cc1cc(F)ccc1CO` [Example 100, (R)-2-(5-fluoro-2-(hydroxymethyl)benzyl)-3-(methoxymethyl)-7-(2-((1-methyl-1h-pyrazole-5-yl)amino)-5-(trifluoromethyl)pyridin-4-yl)-3,4-dihydropyrrolo [1,2-a]pyrazine-1(2H)-one] were, in that order, 19 nM and 19.9 nM.
In the same order, the values of `COC[C@H]1Cn2cc(-c3cc(Nc4ccnn4C)ncc3C)cc2C(=O)N1Cc1cc(F)ccc1CO` [Example 102, (R)-2-(5-fluoro-2-(hydroxymethyl)benzyl)-3-(methoxymethyl)-7-(5-methyl-2-((1-methyl-1h-pyrazole-5-yl)amino)pyridine-4-yl)-3,4-dihydropyrrolo[1,2-a] pyrazine-1(2H)-one] are 6.4 nM and 11.6 nM.
Take `COC[C@H]1Cn2cc(-c3cc(Nc4ccnn4CC(F)F)ncc3Cl)cc2C(=O)N1Cc1cc(F)ccc1CO` [Example 115, (R)-7-(5-chloro-2-((1-(2,2-difluoroethyl)-1h-pyrazole-5-yl)amino)pyridine-4-yl)-2-(5-fluoro-2-(hydroxymethyl)benzyl)-3-(methoxymethyl)-3,4-dihydropyrrolo[1,2-a] pyrazine-1(2H)-one]: the IC50 was found to be 1.6 nM in test [3], 16.7 nM in test [1] and 1.2 nM in test [4].
In test [2], `Cn1nccc1Nc1cc(-c2cc3n(c2)CCN(Cc2ccc(F)cc2CO)C3=O)c(Cl)cn1` [Example 149, 7-(5-chloro-2-((1-methyl-1h-pyrazole-5-yl)amino)pyridine-4-yl)-2-(4-fluoro-2-(hydroxymethyl)benzyl)-3,4-dihydropyrrolo[1,2-a] pyrazine-1(2H)-one] had an IC50 of 21.2 nM.
As to `Cn1nccc1Nc1cc(-c2cc3n(c2)CCN(Cc2cc(F)ccc2CO)C3=O)c(C(F)(F)F)cn1` [Example 161, (5-fluoro-2-(hydroxylmethyl)benzyl)-7-(2-((1-methyl-1h-pyrazole-5-yl)amino)-5-(trifluoromethyl)pyridin-4-yl)-3,4-dihydropyrrolo [1,2-a]pyrazine-1(2H)-one], the IC50 in test [2] amounted to 24.6 nM.
Consider `CC(C)Nc1cc(-c2c[nH]c(C(=O)NCc3cccc(F)c3)c2)c(Cl)cn1` [Example D6, 4-(5-chloro-2-(isopropylamino)pyridine-4-yl)-N-(3-fluorobenzyl)-1h-pyrrole-2-formamide, reference compound], for which the 50% inhibitory concentration (IC50) in test [3] is 44 nM; in test [1] it was greater than 10000 nM; in test [4], 26 nM.
With `CC(C)Nc1cc(-c2cc3n(c2)CC(CO)CN(Cc2cccc(Cl)c2)C3=O)c(Cl)cn1` (stereo not drawn) [Example D7, 8-(5-chloro-2-(isopropylamino)pyridin-4-yl)-2-(3-chlorophenylmethyl)-4-(hydroxymethyl)-2,3,4,5-tetrahydro-1h-pyrrolo [1,2-a][1,4]diazepine-1-one, reference compound], the IC50 in test [3] is greater than 300 nM; in test [1], greater than 10000 nM; in test [4], greater than 300 nM.
In turn, `Cn1nccc1Nc1cc(-c2cc3n(c2)CCN(Cc2cccc(F)c2)C3=O)c(Cl)cn1` [Example D9, 7-(5-chloro-2-((1-methyl-1h-pyrazole-5-yl)amino)pyridine-4-yl)-2-(3-fluorobenzyl)-3,4-dihydropyrrolo[1,2-a] pyrazine-1(2H)-one, reference compound] showed an IC50 in test [2] of 53.6 nM.
For the compound `Cn1nccc1Nc1cc(-c2cc3n(c2)CCN(Cc2cc(F)cc(F)c2)C3=O)c(Cl)cn1` [Example D10, 7-(5-chloro-2-((1-methyl-1h-pyrazole-5-yl)amino)pyridine-4-yl)-2-(3,5-difluorobenzyl)-3,4-dihydropyrrolo[1,2-a] pyrazine-1(2H)-one, reference compound], in test [2], the IC50 is 52.3 nM.
